# According to PubChem BioAssay (NCI):
#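 GI50 = concentration required for 50% inhibition of growth. TGI marks complete inhibition of growth.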
# Columns and labels:
# Assay in all cases: inhibition of tumour cell growth, NCI panel, 384-well format
# HCT-116 colon = test system: HCT-116 colon
# SN12C renal = test system: SN12C renal
# OVCAR-4 ovarian = test system: OVCAR-4 ovarian
# SK-OV-3 ovarian = test system: SK-OV-3 ovarian
# BT-549 breast = test system: BT-549 breast
# SK-MEL-5 melanoma = test system: SK-MEL-5 melanoma
# MOLT-4 leukemia = test system: MOLT-4 leukemia
# SF-539 CNS = test system: SF-539 CNS
# UO-31 renal = test system: UO-31 renal
# UACC-257 melanoma = test system: UACC-257 melanoma
# CAKI-1 renal = test system: CAKI-1 renal
# T-47D breast = test system: T-47D breast
# HS 578T breast = test system: HS 578T breast
# TK-10 renal = test system: TK-10 renal
# A498 renal = test system: A498 renal
# HCT-15 colon = test system: HCT-15 colon
# NCI-H322M lung = test system: NCI-H322M lung
# HT29 colon = test system: HT29 colon
# NCI/ADR-RES ovarian = test system: NCI/ADR-RES ovarian
# SNB-19 CNS = test system: SNB-19 CNS
# HCC-2998 colon = test system: HCC-2998 colon
# MDA-MB-468 breast = test system: MDA-MB-468 breast
# OVCAR-5 ovarian = test system: OVCAR-5 ovarian
# COLO 205 colon = test system: COLO 205 colon
# RXF 393 renal = test system: RXF 393 renal
# OVCAR-8 ovarian = test system: OVCAR-8 ovarian
# M14 melanoma = test system: M14 melanoma
# LOX IMVI melanoma = test system: LOX IMVI melanoma
structure (smiles),measurement,setting,value
Cc1c(NC(=O)OC[C@@H]2COCCN2)cn2ncnc(Nc3ccc4c(cnn4Cc4cccc(F)c4)c3)c12,GI50,HCT-116 colon,2.35 µM
same,TGI,HCT-116 colon,4.88 µM
same,GI50,SN12C renal,1.96 µM
same,TGI,SN12C renal,14.4 µM
same,GI50,OVCAR-4 ovarian,3.75 µM
same,TGI,OVCAR-4 ovarian,12.4 µM
same,GI50,SK-OV-3 ovarian,1.77 µM
same,TGI,SK-OV-3 ovarian,5.72 µM
same,GI50,BT-549 breast,2.03 µM
same,TGI,BT-549 breast,4.36 µM
same,GI50,SK-MEL-5 melanoma,1.51 µM
same,TGI,SK-MEL-5 melanoma,2.9 µM
same,GI50,MOLT-4 leukemia,1.69 µM
same,TGI,MOLT-4 leukemia,3.35 µM
same,GI50,SF-539 CNS,1.95 µM
same,TGI,SF-539 CNS,3.86 µM
same,GI50,UO-31 renal,1.47 µM
same,TGI,UO-31 renal,3.73 µM
same,GI50,UACC-257 melanoma,2.03 µM
same,TGI,UACC-257 melanoma,3.98 µM
same,GI50,CAKI-1 renal,1.9 µM
same,TGI,CAKI-1 renal,14.3 µM
same,GI50,T-47D breast,0.0467 µM
same,TGI,T-47D breast,1.06 µM
same,GI50,HS 578T breast,2.33 µM
same,TGI,HS 578T breast,5.32 µM
same,GI50,TK-10 renal,0.661 µM
same,TGI,TK-10 renal,3.48 µM
same,GI50,A498 renal,1.4 µM
same,TGI,A498 renal,3.24 µM
same,GI50,HCT-15 colon,2.19 µM
same,TGI,HCT-15 colon,5.47 µM
same,GI50,NCI-H322M lung,0.363 µM
same,TGI,NCI-H322M lung,11.1 µM
same,GI50,HT29 colon,1.81 µM
same,TGI,HT29 colon,3.47 µM
same,GI50,NCI/ADR-RES ovarian,12.6 µM
same,TGI,NCI/ADR-RES ovarian,25.2 µM
same,GI50,SNB-19 CNS,3.72 µM
same,TGI,SNB-19 CNS,13.8 µM
same,GI50,HCC-2998 colon,1.66 µM
same,TGI,HCC-2998 colon,3.61 µM
same,GI50,MDA-MB-468 breast,0.0222 µM
same,TGI,MDA-MB-468 breast,0.0701 µM
same,GI50,OVCAR-5 ovarian,3.37 µM
same,TGI,OVCAR-5 ovarian,16.1 µM
same,GI50,COLO 205 colon,2.96 µM
same,TGI,COLO 205 colon,7.54 µM
same,GI50,RXF 393 renal,1.67 µM
same,TGI,RXF 393 renal,3.34 µM
same,GI50,OVCAR-8 ovarian,4.46 µM
same,TGI,OVCAR-8 ovarian,16.2 µM
same,GI50,M14 melanoma,2.08 µM
same,TGI,M14 melanoma,4.29 µM
same,GI50,LOX IMVI melanoma,1.7 µM
